Results published in patent publication US5652222A, “Selective inhibition of leukemic cell proliferation by bcr-abl antisense oligonucleotides” (Temple University-of The Commonwealth System of Higher …, priority 1993, dated 1997).

Legend:
[1] = tested on: β2-microglobulin transcript; test: β2-microglobulin transcript in residual colonies (RT-PCR control); format: cell-based, human; conditions: antisense-treated colonies
Method: To provide unambiguous evidence of the elimination of Philadelphia chromosome blast cells, residual cells from Example 3 were evaluated for the expression of bcr-abl transcripts, since the levels of this transcript should reflect the number of surviving leukemia cells. For this purpose, total RNA was isolated from a pool of colonies from Example 3, and the levels of bcr-abl transcripts were evaluated. Levels of β2 -microglobulin transcript were also determined as a control. The β2 -microglobulin gene is expressed independent of cell cycle.
Accordingly, bcr-abl and β2 -microglobulin transcripts were reverse-transcribed and amplified in the presence of specific primers and Taq polymerase as described by Rappollee, Science 241, 708-712 (1988). The amplification products were separated on a 2% agarose gel and transferred to a nitrocellulose filter, which was hybridized with a synthetic 40-nucleotide c-abl fragment and a 40-nucleotide β2 -microglobulin fragment and labeled with [γ-^32 P]-ATP and polynucleotide kinase. The c-abl probe recognizes the amplified 257-nucleotide sequence of FIG. 1, which contains the L-6 type bcr-abl junction. The β2 -microglobulin probe recognizes the 195-nucleotide sequence contained within 5' and 3' β2 -microglobulin primers (Id.; Suggs et al., Proc. Natl. Acad. Sci. U.S.A. 78, 6613 (1981)).

[2] = tested on: Philadelphia chromosome-positive blast cells of CML patients in blast crisis, L-6 (b2a2) type junction; test: Colony formation of CML blast crisis patient cells expressing the b2a2 (L-6) junction; format: cell-based, human; conditions: for Number of Colonies, Antisense-treated: 40 μg/ml at start, 20 μg/ml 18 h later; for % Inhibition: number of colonies vs untreated
Method: Leukemia cells were obtained from the marrow of the posterior iliac crest of five CML patients in blast crisis. The cells were diluted 1:2 in Iscove's modified Dulbecco medium (IMDM) to form a cell suspension. Philadelphia chromosome-positive blast cells were isolated by Ficoll-Hypaque density gradient sedimentation to remove non-mononuclear cells. Accordingly, the bone marrow cell suspension was gently overlayed on a Histopaque density gradient (Sigma Chemical Co., St. Louis, Mo.) in a 2:1 ratio, and then spun down for 30 min. at 1500 rpm and 18° C. Cells remaining in the interface layer after centrifugation were collected using a Pasteur pipet, and washed with IMDM at 1000 rpm and […] for 10 min.
Cells plated into methyl cellulose semisolid media after 7-11 days of culture were recovered from the medium. Total RNA was isolated according to the procedure of Chomczynski et al, Anal. Biochem. 162, 156-159 (1987). The RNA ([…]) isolated from one patient having particularly exuberant cell growth was annealed with the 3' RT-PCR primer GCTTCACACC ATTCCCCATTGT (SEQ ID NO:10) complementary to 22 nucleotides of c-abl exon 2 for 30 minutes at 37° C. Following annealing of the 3' primer, the RNA was reverse transcribed with 500 units of Moloney murine leukemia virus reverse transcriptase at 37° C. for 1 hour. The reaction was stopped and the mixture diluted in 1 x Thermus aquaticus (Taq) polymerase buffer. A 5' primer, the 22 nucleotide oligomer CACAGCATTCCGCTGACCATCA (SEQ ID NO: 11) complementary to bcr exon 2 and additional c-abl exon 2 3' primer were added to a final concentration of 2 ng/μl each with 2.5 units of Taq polymerase for amplification of the cDNA fragments. Sixty cycles of PCR were performed in a Perkin Elmer Thermal Cycler by annealing at 55° C., synthesizing at 72° C. and denaturing at 95° C. The amplification product, corresponding to the b2a2 junction, was thereafter separated on a 2% agarose gel. The band containing the bcr-abl fragment was cut out and cleaned according to a standard technique utilizing a GENE-CLEAN™ kit (Bio 101, Inc.), cloned by blunt end ligation in the BLUESCRIPT SK vector (Stratagene Cloning Systems) linearized by SMA I digestion. Several individual clones were then sequenced using the SEQUENASE™ version 2.0 enzyme (United States Biochemical Corp., Cleveland, Ohio), according to the sequence protocol recommended by the manufacturer. Accordingly, the denatured bcr-abl DNA fragments were annealed with specific primers which flank the cloning site in the BLUESCRIPT SK vector, in the presence of SEQUENASE™ reaction buffer for 15 min. at 37° C. The primer-annealed fragments were incubated at room temperature with SEQUENASE™ version 2.0 enzyme and α-S^35 dAT at 37° C. Subsequently, labelled template-primer complexes were transferred to tubes containing A, T, C and G nucleotides (one nucleotide per tube) and incubated 5-30 min. at 37° C. The samples were then loaded on a previously prepared acrylamide gel, and run for approximately 10 hours. The sequencing gel was dryed, and the film exposed O/N. Sequence analysis of several of the individual clones identified the bcr-abl junction as having the cDNA sequence shown in FIG. 1 (SEQ ID NO:1). The arrow in the figure indicates the bcr-abl breakpoint junction, and the box delineates the 18 nucleotides corresponding to the junction, which forms a preferred target sequence for hybridization of antisense oligomer. The junction corresponds precisely to the L-6 type breakpoint reported by Shtivelman et al., Cell 47, 277 (1986), in which the bcr exon 2 is fused to c-abl exon 2.
In a similar manner, L-6 type junctions were identified in the remaining CML blast crisis patients by hybridization of RT-PCR amplification products derived from blast crisis CML RNA using a synthetic 18-mer GAAGGGCTTC TTCCTTAT (SEQ ID NO:3) specific for the 18-nucleotide target sequence of the L-6 bcr-abl junction. […]

## SEQ ID NO:3: synthetic 18-mer GAAGGGCTTC TTCCTTAT specific for the 18-nucleotide target sequence of the L-6 bcr-abl junction (antisense GAAGGGCTTCTTCCTTAT; chemistry not given here)
[1]
  expression of β2-microglobulin: clearly detectable
[2]; 10 days in semi-solid culture (FIG. 2)
  colonies of blast cells formed: very few colonies, with a much smaller number of cells
[2]; Table 1, patient 1, untreated 450 ± 64
  Number of Colonies, Antisense-treated: 112 ± 18 colonies
[2]; Table 1, patient 2, untreated 324 ± 18
  Number of Colonies, Antisense-treated: 62 ± 8 colonies
[2]; Table 1, patient 3
  % Inhibition: 90%
[2]; Table 1, patient 4, untreated 212 ± 15
  Number of Colonies, Antisense-treated: 80 ± 8 colonies
[2]; Table 1, patient 5, untreated 380 ± 16
  Number of Colonies, Antisense-treated: 70 ± 8 colonies
[2]; Table 1, patient 5
  % Inhibition: 82%
[2]; five L-6 type junction patients, repeated experiments
  inhibition of colony formation: 60 to 90%
